Laboratory results published in ChEMBL document CHEMBL5154730, “A covalent strategy to target intrinsically disordered proteins: Discovery of novel tau aggregation inhibitors” (Eur J Med Chem, 2022).
Calls of active or inactive are those of the source. The rule behind the calls is not given here.

What was measured:
[1] = biological target: Microtubule-associated protein tau (Homo sapiens) (UniProt P10636); experiment: Inhibition of tau K18 domain (unknown origin) assessed as inhibition of heparin-induced aggregation by measuring protein aggregation rate at 10 uM by thioflavin-T fluorescence assay relative to control; design: scale not given: the % may be the effect or the level left
Chain of Microtubule-associated protein tau (Homo sapiens) (P10636 whole entry, the tested form may be a part): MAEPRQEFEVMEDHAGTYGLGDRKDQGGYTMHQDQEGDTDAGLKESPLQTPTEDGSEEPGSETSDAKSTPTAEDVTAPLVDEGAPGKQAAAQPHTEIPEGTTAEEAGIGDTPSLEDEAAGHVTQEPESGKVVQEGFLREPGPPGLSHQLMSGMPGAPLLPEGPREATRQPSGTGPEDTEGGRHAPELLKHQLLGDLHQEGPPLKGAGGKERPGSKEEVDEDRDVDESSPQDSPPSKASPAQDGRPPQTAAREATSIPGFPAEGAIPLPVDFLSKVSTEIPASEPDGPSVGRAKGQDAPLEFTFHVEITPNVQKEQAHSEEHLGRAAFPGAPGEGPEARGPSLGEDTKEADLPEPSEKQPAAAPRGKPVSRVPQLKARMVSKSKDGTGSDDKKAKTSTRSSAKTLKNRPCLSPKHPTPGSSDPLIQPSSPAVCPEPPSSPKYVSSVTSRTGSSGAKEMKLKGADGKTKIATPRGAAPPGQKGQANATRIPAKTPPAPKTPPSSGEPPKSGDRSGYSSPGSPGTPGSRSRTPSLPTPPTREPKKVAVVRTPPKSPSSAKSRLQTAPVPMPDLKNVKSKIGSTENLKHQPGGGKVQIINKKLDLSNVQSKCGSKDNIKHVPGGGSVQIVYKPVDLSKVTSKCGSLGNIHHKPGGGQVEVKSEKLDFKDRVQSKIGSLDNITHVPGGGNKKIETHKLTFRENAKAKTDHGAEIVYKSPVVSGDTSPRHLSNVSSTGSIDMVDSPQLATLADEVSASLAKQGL

Homo sapiens = species: Homo sapiens; experiment: Inhibition of hexahistidine-tagged tau K18 domain C291S/C322S mutant (unknown origin) expressed in Escherichia coli BL21 (DE3) assessed as inhibition of heparin-induced aggregation by measuring protein aggregation rate at 10 uM by thioflavin-T fluorescence assay relative to control; design: scale not given: the % may be the effect or the level left
[2] = biological target: Microtubule-associated protein tau (Homo sapiens) (UniProt P10636); experiment: Binding affinity to tau K18 domain (unknown origin) assessed as cysteine labelling efficiency by measuring free thiol ratio at 200 uM incubated for 24 hrs by Ellmans method relative to control
[3] = biological target: Microtubule-associated protein tau (Homo sapiens) (UniProt P10636); experiment: Inhibition of tau K18 domain (unknown origin) assessed as inhibition of heparin-induced aggregation by measuring increase in brightness by transmission electron microscopy
[4] = biological target: Microtubule-associated protein tau (Homo sapiens) (UniProt P10636); experiment: Inhibition of tau K18 domain (unknown origin) assessed as inhibition of heparin-induced aggregation by measuring protein aggregation rate at 50 uM by thioflavin-T fluorescence assay relative to control; design: scale not given: the % may be the effect or the level left
[5] = biological target: Microtubule-associated protein tau (Homo sapiens) (UniProt P10636); experiment: Inhibition of tau K18 domain (unknown origin) assessed as inhibition of heparin-induced aggregation by measuring protein aggregation rate at 100 uM by thioflavin-T fluorescence assay relative to control; design: scale not given: the % may be the effect or the level left
[6] = biological target: Microtubule-associated protein tau (Homo sapiens) (UniProt P10636); experiment: Inhibition of tau K18 domain (unknown origin) assessed as inhibition of heparin-induced aggregation by measuring protein aggregation rate at 250 uM by thioflavin-T fluorescence assay relative to control; design: scale not given: the % may be the effect or the level left
[7] = biological target: Microtubule-associated protein tau (Homo sapiens) (UniProt P10636); experiment: Inhibition of tau K18 domain (unknown origin) assessed as inhibition of heparin-induced aggregation by measuring protein aggregation rate at 500 uM by thioflavin-T fluorescence assay relative to control; design: scale not given: the % may be the effect or the level left
[8] = biological target: Microtubule-associated protein tau (Homo sapiens) (UniProt P10636); experiment: Inhibition of tau K18 domain (unknown origin) assessed as inhibition of heparin-induced aggregation by measuring protein aggregation rate at 1000 uM by thioflavin-T fluorescence assay relative to control; design: scale not given: the % may be the effect or the level left
[9] = biological target: Microtubule-associated protein tau (Homo sapiens) (UniProt P10636); experiment: Covalent binding affinity to tau K18 domain monomer (unknown origin) assessed as labelling at Cys291 residue incubated for 24 hrs and measured following trypsin digestion by LC-MS/MS analysis
[10] = biological target: Microtubule-associated protein tau (Homo sapiens) (UniProt P10636); experiment: Covalent binding affinity to tau K18 domain monomer (unknown origin) assessed as labelling at Cys322 residue incubated for 24 hrs and measured following trypsin digestion by LC-MS/MS analysis
[11] = biological target: Microtubule-associated protein tau (Homo sapiens) (UniProt P10636); experiment: Inhibition of tau K18 domain (unknown origin) assessed as inhibition of heparin-induced aggregation by measuring reduction in intensity at 215 nm with random coil conformation by CD spectrometry
[12] = biological target: Microtubule-associated protein tau (Homo sapiens) (UniProt P10636); experiment: Binding affinity to tau K18 domain (unknown origin) assessed as cysteine labelling at 250 uM incubated for 18 hrs by 15N-HSQC NMR spectroscopy

Compound | Activity [1] | Activity (Homo sapiens) | Activity [2] | other results
C=CS(=O)(=O)NCCNC(=O)O[C@H]1CC[C@@]2(C)C(=CC[C@H]3[C@@H]4CC[C@H]([C@H](C)CCCC(C)C)[C@@]4(C)CC[C@@H]32)C1 | 39.7% | 100% | 56.7% | inhibition [3]: Active
C=CS(N)(=O)=O | 110% |  |  | 
C=CS(=O)(=O)Cc1c2ccccc2cc2ccccc12 | 21.3% | 69.4% | 34.4% | Activity [4]: 78.2%; Activity [5]: 72%; Activity [6]: 54.1%; Activity [7]: 43.9%; Activity [8]: 21.3%; Activity [9]: Active; Activity [10]: Active
H-DVWMINKKRK-OH | 38.1% | 29.4% |  | 
C=CS(=O)(=O)NCc1cc(C(F)(F)F)cc(C(F)(F)F)c1 | 96.9% |  |  | 

Second part, led by results:

Activity [1] | Activity (Homo sapiens) | Activity [2] | Compound | other results
107% |  |  | C=CS(=O)(=O)c1cc(C(F)(F)F)cc(C(F)(F)F)c1 | 
29.2% | 83.4% | 44.7% | C=CS(=O)(=O)Cc1ccc(-c2ccc(/C=C3/SC(=S)N(CCC(=O)OCC)C3=O)o2)cc1 | Activity [4]: 75.4%; Activity [5]: 60.3%; Activity [6]: 50.8%; Activity [7]: 40.1%; Activity [8]: 29.2%; inhibition [11]: Active
97.3% |  |  | C=CS(=O)(=O)Cc1ccc(C(=O)c2ccccc2)cc1 | 
102% |  |  | C=CS(=O)(=O)Cc1cccc2cccnc12 | 
15.7% | 57.9% | 39.7% | C=CS(=O)(=O)Nc1ccc(C(=O)NCCCCCC(=O)N[C@@H](CCC(=O)O)C(=O)N[C@@H](C)C(=O)N[C@@H](C)C(=O)N[C@@H](CCC(=O)O)C(=O)N[C@@H](C)C(=O)N[C@@H](CCCCN)C(=O)N[C@@H](C)C(=O)N[C@@H](C)C(=O)NC(CCCCn2cc(CNC(=O)[C@H](Cc3c[nH]c4ccccc34)NC3C(=O)c4ccccc4C(=O)C3Cl)nn2)C(=O)O)cc1 (stereo partly drawn) | Activity [9]: Active; inhibition [3]: Active
97.7% |  |  | C=CS(=O)(=O)c1ccccc1 | 
111% |  |  | C=CS(=O)(=O)Cc1ccc2ccccc2c1 | 
39.8% | 86.7% | 66.3% | C=CS(=O)(=O)Cc1cc(C(F)(F)F)cc(C(F)(F)F)c1 | Activity [4]: 94.4%; Activity [5]: 75.3%; Activity [6]: 62.9%; Activity [7]: 43.1%; Activity [8]: 39.8%; Activity [9]: Active; Activity [10]: Active; Activity [12]: Active
